Legend:
Hepatitis B virus [1] = test: Antiviral activity against Hepatitis B virus genotype D infected in HepDE19 cells assessed as inhibition of viral replication by measuring decrease in intracellular rcDNA level by bDNA assay; format: functional, organism-based
[2] = Selectivity index, ratio of CC50 for cytotoxicity against human HepDE19 cells to EC50 for antiviral activity against Hepatitis B virus genotype D infected in HepDE19 cells; format: toxicity, cell-based; conditions: read-out: Ratio CC50/EC50
[3] = Cytotoxicity against human HepDE19 cells by CellTiter-Glo assay; format: toxicity, cell-based
Cytochrome P450 2B6 = target: T1, Cytochrome P450 2B6 (Homo sapiens, UniProt P20813); test: Inhibition of CYP2B6 (unknown origin); format: ADME
T1 sequence (P20813 whole entry): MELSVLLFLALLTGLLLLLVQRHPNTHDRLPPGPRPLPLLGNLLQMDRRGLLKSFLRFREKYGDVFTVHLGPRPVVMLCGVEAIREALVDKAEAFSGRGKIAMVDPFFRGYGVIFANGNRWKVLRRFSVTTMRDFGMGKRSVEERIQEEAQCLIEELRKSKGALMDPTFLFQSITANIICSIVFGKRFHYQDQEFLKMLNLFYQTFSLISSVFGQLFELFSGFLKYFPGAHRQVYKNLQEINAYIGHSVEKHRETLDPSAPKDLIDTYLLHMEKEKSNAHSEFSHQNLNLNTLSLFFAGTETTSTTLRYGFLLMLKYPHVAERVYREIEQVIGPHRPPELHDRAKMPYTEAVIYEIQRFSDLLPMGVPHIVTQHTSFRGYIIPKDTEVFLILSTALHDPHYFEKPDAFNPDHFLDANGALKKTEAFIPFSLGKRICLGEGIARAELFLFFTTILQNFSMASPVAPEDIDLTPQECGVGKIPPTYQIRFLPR

Cytochrome P450 3A4 = Cytochrome P450 3A4 (Homo sapiens, UniProt P08684); test: Inhibition of CYP3A4 (unknown origin); format: ADME
Cytochrome P450 2D6 = Cytochrome P450 2D6 (Homo sapiens, UniProt P10635); test: Inhibition of CYP2D6 (unknown origin); format: ADME
Cytochrome P450 2C19 = Cytochrome P450 2C19 (Homo sapiens, UniProt P33261); test: Inhibition of CYP2C19 (unknown origin); format: ADME
[4] = AUC(last) in CD-1 mouse at 10 mg/kg, po; format: ADME, organism-based; conditions: in vivo
[5] = Cmax in CD-1 mouse at 10 mg/kg, po; format: ADME, organism-based; conditions: in vivo
[6] = Half life in CD-1 mouse at 10 mg/kg, po; format: ADME, organism-based; conditions: in vivo
[7] = Drug uptake in CD-1 mouse liver at 10 mg/kg, po or 2 mg/kg, iv measured after 24 hrs; format: ADME, organism-based; conditions: read-out: Drug uptake
[8] = Intrinsic clearance in mouse liver microsomes; format: ADME, Microsome; conditions: read-out: CLH
[9] = Intrinsic clearance in human liver microsomes; format: ADME, Microsome; conditions: read-out: CLH
Hepatitis B virus [10] = test: Anti-viral activity against Hepatitis B virus infected in mouse assessed as log10 reduction of HBV DNA levels in serum at 10 mg/kg, po qd for 7 days; format: functional; conditions: time 7 day
Hepatitis B virus [11] = test: Anti-viral activity against Hepatitis B virus infected in mouse assessed as log10 reduction of HBV DNA levels in serum at 3 mg/kg, po qd for 7 days; format: functional; conditions: time 7 day
Hepatitis B virus [12] = test: Antiviral activity against Hepatitis B virus genotype D harboring core protein-T33N mutant; format: functional, organism-based
Cytochrome P450 2C9 = Cytochrome P450 2C9 (Homo sapiens, UniProt P11712); test: Inhibition of CYP2C9 (unknown origin); format: ADME
[13] = Hepatitis B virus, genotype D, HepDE19

Chain of Cytochrome P450 3A4 (P08684 whole entry): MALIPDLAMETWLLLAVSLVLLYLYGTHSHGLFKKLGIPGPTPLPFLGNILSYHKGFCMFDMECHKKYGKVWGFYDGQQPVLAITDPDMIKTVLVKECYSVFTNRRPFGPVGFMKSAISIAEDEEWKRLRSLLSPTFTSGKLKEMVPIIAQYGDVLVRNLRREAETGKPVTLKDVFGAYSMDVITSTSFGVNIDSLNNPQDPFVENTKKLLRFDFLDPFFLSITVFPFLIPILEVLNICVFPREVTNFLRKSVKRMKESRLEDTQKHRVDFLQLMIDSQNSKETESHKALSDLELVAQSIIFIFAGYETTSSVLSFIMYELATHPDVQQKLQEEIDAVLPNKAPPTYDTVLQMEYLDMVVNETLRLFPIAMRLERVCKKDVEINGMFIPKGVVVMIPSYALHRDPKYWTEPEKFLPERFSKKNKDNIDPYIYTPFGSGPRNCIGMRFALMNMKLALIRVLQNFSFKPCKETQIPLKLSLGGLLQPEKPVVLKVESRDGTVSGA
Chain of Cytochrome P450 2C19 (P33261 whole entry): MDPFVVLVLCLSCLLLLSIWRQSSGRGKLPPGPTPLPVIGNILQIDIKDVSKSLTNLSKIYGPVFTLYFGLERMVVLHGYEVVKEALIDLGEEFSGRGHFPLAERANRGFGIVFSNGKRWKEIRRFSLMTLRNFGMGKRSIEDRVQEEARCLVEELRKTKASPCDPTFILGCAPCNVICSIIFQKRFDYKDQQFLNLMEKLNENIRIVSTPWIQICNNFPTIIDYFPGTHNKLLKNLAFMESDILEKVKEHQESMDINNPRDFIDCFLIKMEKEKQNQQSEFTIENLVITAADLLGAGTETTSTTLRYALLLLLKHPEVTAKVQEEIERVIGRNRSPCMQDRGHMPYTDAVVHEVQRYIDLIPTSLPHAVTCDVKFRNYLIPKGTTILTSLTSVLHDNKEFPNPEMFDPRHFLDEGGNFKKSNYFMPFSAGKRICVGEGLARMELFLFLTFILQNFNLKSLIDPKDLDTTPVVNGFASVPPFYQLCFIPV
Chain of Cytochrome P450 2D6 (P10635 whole entry): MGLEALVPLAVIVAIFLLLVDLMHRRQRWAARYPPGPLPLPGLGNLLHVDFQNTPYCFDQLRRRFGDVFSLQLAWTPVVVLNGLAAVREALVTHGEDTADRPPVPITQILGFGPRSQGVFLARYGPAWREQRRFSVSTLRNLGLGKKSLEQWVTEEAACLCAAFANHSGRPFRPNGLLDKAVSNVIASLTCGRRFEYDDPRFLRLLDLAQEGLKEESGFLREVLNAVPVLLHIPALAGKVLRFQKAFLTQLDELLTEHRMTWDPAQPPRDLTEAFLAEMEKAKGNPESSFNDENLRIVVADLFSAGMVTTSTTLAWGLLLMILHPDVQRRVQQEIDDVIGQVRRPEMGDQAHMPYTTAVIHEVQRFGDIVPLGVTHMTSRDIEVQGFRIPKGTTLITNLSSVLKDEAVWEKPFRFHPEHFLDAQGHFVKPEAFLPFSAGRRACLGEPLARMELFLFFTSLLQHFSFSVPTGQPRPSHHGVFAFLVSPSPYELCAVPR
Chain of Cytochrome P450 2C9 (P11712 whole entry): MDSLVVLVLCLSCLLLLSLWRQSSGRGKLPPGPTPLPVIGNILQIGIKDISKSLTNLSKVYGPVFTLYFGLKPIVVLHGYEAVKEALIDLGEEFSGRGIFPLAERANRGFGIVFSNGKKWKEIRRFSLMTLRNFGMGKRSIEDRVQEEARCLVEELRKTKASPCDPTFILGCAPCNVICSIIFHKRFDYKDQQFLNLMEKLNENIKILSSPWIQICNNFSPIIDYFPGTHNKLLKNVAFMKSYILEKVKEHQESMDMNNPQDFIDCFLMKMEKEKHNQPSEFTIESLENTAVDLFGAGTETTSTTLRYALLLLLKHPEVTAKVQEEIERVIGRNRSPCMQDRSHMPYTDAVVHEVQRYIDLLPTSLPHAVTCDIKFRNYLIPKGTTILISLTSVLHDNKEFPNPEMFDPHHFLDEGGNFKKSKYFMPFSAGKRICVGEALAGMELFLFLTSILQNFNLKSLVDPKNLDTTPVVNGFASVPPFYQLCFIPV

Compound | EC50 (Hepatitis B virus [1]; [13]) [nM] | selectivity ratio [2] | CC50 [3] [nM] | further results
CN1Cc2[nH]c(=O)c3cc(F)c(F)cc3c2[C@H](N(C)C(=O)Nc2ccc(F)c(Cl)c2)C1 | 180 | > 1500 | > 10000 | –
CN(C(=O)Nc1ccc(F)c(Cl)c1)[C@@H]1CCc2[nH]c(=O)c3ccccc3c21 | 45 | > 1500 | > 10000 | –
CN(C(=O)Nc1ccc(F)c(Cl)c1)C1CCCc2[nH]c(=O)c3cc(F)c(F)cc3c21 (stereo in doubt; 8) | – | – | – | EC50 (Hepatitis B virus [1]; hepde19): 12 nM; IC50 (Cytochrome P450 2B6): < 10000 nM; IC50 (Cytochrome P450 3A4): < 10000 nM; IC50 (Cytochrome P450 2D6): 4300 nM; IC50 (Cytochrome P450 2C19): < 10000 nM
CN(C(=O)Nc1ccc(F)c(Cl)c1)C1CCc2[nH]c(=O)c3ccccc3c21 (racemic) | 87 | > 1500 | > 10000 | –
CN(C(=O)Nc1ccc(F)c(Cl)c1)C1CCCc2[nH]c(=O)c3ccccc3c21 (racemic) | – | > 1500 | > 10000 | EC50 (Hepatitis B virus [1]; hepde19): 84 nM
CN(C(=O)Nc1cc(F)c(F)c(F)c1)[C@@H]1COCc2[nH]c(=O)c3cc(F)c(F)cc3c21 | 18 | > 1500 | > 10000 | –
CN(C(=O)Nc1ccc(F)c(C#N)c1)[C@@H]1COCc2[nH]c(=O)c3cc(F)c(F)cc3c21 | 8 | > 1500 | > 10000 | AUC(0-t) [4]: 4330 ng·h/mL; Cmax [5]: 720 ng/mL; half-life [6]: 2.4 h; concentration at 24 h [7]: 8 ng/g
CN(C(=O)Nc1ccc(F)c(Cl)c1)C1CCCc2[nH]c(=O)c3ccccc3c21 (stereo in doubt; 2b) | – | – | – | EC50 (Hepatitis B virus [1]; hepde19): 45 nM
CN(C(=O)c1cc2ccc(F)cc2[nH]1)[C@@H]1COCc2[nH]c(=O)c3cc(F)c(F)cc3c21 | 9 | > 1500 | > 10000 | microsomal CLint [8]: 44 µL/min/mg; microsomal CLint [9]: 53 µL/min/mg
CC(C)CN(C(=O)Nc1ccc(F)c(Cl)c1)C1CCCc2[nH]c(=O)c3ccccc3c21 (racemic) | 470 | > 1500 | > 10000 | –
CN(C(=O)Nc1ccc(F)c(Cl)c1)[C@@H]1COCc2[nH]c(=O)c3cc(F)c(F)cc3c21 | 7 | > 1500 | > 10000 | AUC(0-t) [4]: 6990 ng·h/mL; log(activity) (Hepatitis B virus [10]): 2.86; log(activity) (Hepatitis B virus [11]): 1.04; microsomal CLint [8]: 27 µL/min/mg; Cmax [5]: 690 ng/mL; IC50 (Cytochrome P450 2B6): > 15000 nM; IC50 (Cytochrome P450 3A4): > 15000 nM; IC50 (Cytochrome P450 2D6): > 15000 nM; half-life [6]: 3.1 h; IC50 (Cytochrome P450 2C19): > 15000 nM; EC50 (Hepatitis B virus [12]): 400 nM; concentration at 24 h [7]: 150 ng/g; microsomal CLint [9]: 54 µL/min/mg; IC50 (Cytochrome P450 2C9): > 15000 nM
CN(C(=O)Nc1ccc(F)c(Cl)c1)[C@@H]1CSCc2[nH]c(=O)c3cc(F)c(F)cc3c21 | 21 | > 1500 | > 10000 | microsomal CLint [8]: 112 µL/min/mg; microsomal CLint [9]: 216 µL/min/mg
CN(C(=O)c1cc2cc(F)c(F)c(F)c2[nH]1)[C@@H]1COCc2[nH]c(=O)c3cc(F)c(F)cc3c21 | 5 | > 1500 | > 10000 | AUC(0-t) [4]: 15900 ng·h/mL; microsomal CLint [8]: 20 µL/min/mg; Cmax [5]: 1080 ng/mL; half-life [6]: 10.8 h; concentration at 24 h [7]: 3230 ng/g; microsomal CLint [9]: 31 µL/min/mg
CN(C(=O)Nc1ccc(F)c(Cl)c1)C1CCCc2[nH]c(=O)c3ccccc3c21 (stereo in doubt) | – | – | – | EC50 (Hepatitis B virus [1]; hepde19): 760 nM
CN(C(=O)c1cc2cc(F)ccc2[nH]1)[C@@H]1COCc2[nH]c(=O)c3cc(F)c(F)cc3c21 | 4 | > 1500 | > 10000 | microsomal CLint [8]: 48 µL/min/mg; microsomal CLint [9]: 95 µL/min/mg
CN(C(=O)Nc1ccccc1)[C@@H]1COCc2[nH]c(=O)c3cc(F)c(F)cc3c21 | 33 | > 1500 | > 10000 | –
CN(C(=O)Nc1ccc(F)c(C(F)F)c1)[C@@H]1COCc2[nH]c(=O)c3cc(F)c(F)cc3c21 | 6 | > 1500 | > 10000 | AUC(0-t) [4]: 20800 ng·h/mL; log(activity) (Hepatitis B virus [10]): 2.68; log(activity) (Hepatitis B virus [11]): 1.68; Cmax [5]: 2340 ng/mL; half-life [6]: 2.9 h; EC50 (Hepatitis B virus [12]): 227 nM; concentration at 24 h [7]: 135 ng/g
CN(C(=O)Nc1ccc(F)c(Cl)c1)[C@@H]1CN(CCO)Cc2[nH]c(=O)c3cc(F)c(F)cc3c21 | 1360 | > 1500 | > 10000 | –
CN(C(=O)c1cc2cccc(F)c2[nH]1)C1COCc2[nH]c(=O)c3cc(F)c(F)cc3c21 (configuration not stated) | 11 | > 1500 | > 10000 | microsomal CLint [8]: 57 µL/min/mg; microsomal CLint [9]: 81 µL/min/mg
CN(C(=O)c1cc2ccccc2[nH]1)[C@@H]1COCc2[nH]c(=O)c3cc(F)c(F)cc3c21 | 9 | > 1500 | > 10000 | microsomal CLint [8]: 70 µL/min/mg; microsomal CLint [9]: 91 µL/min/mg
CN(C(=O)Nc1ccc(F)c(Cl)c1)C1CCCc2[nH]c(=O)c3cc(F)c(F)cc3c21 (racemic) | – | – | > 10000 | EC50 (Hepatitis B virus [1]; hepde19): 19 nM
CN(C(=O)Nc1ccc(F)c(Cl)c1)C1CCCCc2[nH]c(=O)c3ccccc3c21 (racemic) | 150 | > 1500 | > 10000 | –
CC(C)CN(C(=O)Nc1ccc(F)c(Cl)c1)[C@@H]1CCc2[nH]c(=O)c3ccccc3c21 | 7 | > 1500 | > 10000 | –
CN(C(=O)Nc1ccc(F)c(Cl)c1)C1CCCc2[nH]c(=O)c3cc(F)c(F)cc3c21 (stereo in doubt) | – | – | – | EC50 (Hepatitis B virus [1]; hepde19): 1030 nM
CN(C(=O)Nc1ccc(F)c(Cl)c1)C1CCCc2[nH]c(=O)c3c(F)c(F)ccc3c21 (racemic) | 440 | > 1500 | > 10000 | –
CN(C(=O)Nc1ccc(F)c(Cl)c1)C1CCCc2[nH]c(=O)c3cc(F)ccc3c21 (racemic) | 31 | > 1500 | > 10000 | –
CN(C(=O)Nc1ccc(F)c(Cl)c1)C1CCCc2[nH]c(=O)c3cc(F)cc(F)c3c21 (racemic) | 510 | > 1500 | > 10000 | –
CN(C(=O)Nc1ccc(F)c(Cl)c1)[C@@H]1CNCc2[nH]c(=O)c3cc(F)c(F)cc3c21 | 9 | > 1500 | > 10000 | microsomal CLint [8]: 23 µL/min/mg; microsomal CLint [9]: 86 µL/min/mg

— ChEMBL document CHEMBL5614459, “Conformationally Constrained Isoquinolinones as Orally Efficacious Hepatitis B Capsid Assembly Modulators” (ACS Med Chem Lett, 2024)
